# Assay results: ChEMBL document CHEMBL5500370, “Discovery of potent and novel dual NAMPT/BRD4 inhibitors for efficient treatment of hepatocellular carcinoma” (Eur J Med Chem, 2024)
# Active and inactive are the calls of the source. The rule behind the calls is not given here.
# Key:
# [1] = tested on: Hep 3B2; assay: Induction of apoptosis in human Hep3B cells assessed as viable cells at 10 uM measured after 72 hrs by Annexin V-FITC/PI staining based flow cytometry (reference value: 94.08 %); assay type: functional; settings: Homo sapiens, Hep3B, read-out: Activity
# [2] = tested on: Hep 3B2; assay: Induction of apoptosis in human Hep3B cells assessed as necrotic cells at 5 uM measured after 72 hrs by Annexin V-FITC/PI staining based flow cytometry (reference value: 2.74 %); assay type: functional
# [3] = tested on: HCCLM3; assay: Antitumor activity against human HCCLM3 cells xenografted in BALB/c nude mouse at 40 mg/kg, ip for 27 days relative to control; assay type: functional; settings: HCCLM3, 648 h, time 27 day, read-out: TGI
# [4] = tested on: Huh-7; assay: cells; settings: Homo sapiens, Huh-7, 120 h
# [5] = tested on: Hep 3B2; assay: Induction of cell cycle arrest at G0/G1 phase in human Hep3B cells at 1 uM measured after 72 hrs by PI/RNase staining based flow cytometry (reference value: 56.73 %); assay type: functional
# [6] = tested on: Hep 3B2; assay: Induction of apoptosis in human Hep3B cells assessed as early apoptotic cells at 10 uM measured after 72 hrs by Annexin V-FITC/PI staining based flow cytometry (reference value: 2.13 %); assay type: functional
# [7] = biological target: Bromodomain-containing protein 4 (Homo sapiens, UniProt O60885); assay: Inhibition of BRD4 BD1 (unknown origin) incubated for 120 mins by TR-FRET assay
# [8] = tested on: Hep 3B2; assay: Induction of apoptosis in human Hep3B cells assessed as late apoptotic cells at 10 uM measured after 72 hrs by Annexin V-FITC/PI staining based flow cytometry (reference value: 1.05 %); assay type: functional
# [9] = tested on: Hep 3B2; assay: Induction of apoptosis in human Hep3B cells assessed as early apoptotic cells at 1 uM measured after 72 hrs by Annexin V-FITC/PI staining based flow cytometry (reference value: 2.13 %); assay type: functional
# [10] = tested on: Hep 3B2; assay: Induction of apoptosis in human Hep3B cells assessed as necrotic cells at 1 uM measured after 72 hrs by Annexin V-FITC/PI staining based flow cytometry (reference value: 2.74 %); assay type: functional
# [11] = tested on: Hep 3B2; assay: Induction of cell cycle arrest at G0/G1 phase in human Hep3B cells at 10 uM measured after 72 hrs by PI/RNase staining based flow cytometry (reference value: 56.73 %); assay type: functional
# [12] = tested on: Hep 3B2; assay: Downregulation of NAPRT level in human Hep3B cells at 1 to 10 uM measured after 72 hrs by immunoblot analysis; assay type: functional, cell-based; settings: dose 1-10 µM
smiles,measurement,setting,value
Cc1sc2c(c1C)C(c1ccc(Cl)cc1)=N[C@@H](CC(=O)NCCCNC(=O)/C=C/c1cccnc1)c1nnc(C)n1-2,viability at 10 µM,[1],72.1%
same,Activity,[2],4.6%
same,inhibition in vivo at 40 mg/kg,[3],37.2%
same,IC50,[4],6.49 µM
same,Activity,[5],66.06%
same,Activity,[6],18.89%
same,IC50,[7],0.012 µM
same,Activity,[8],6.56%
same,Activity,[9],8.83%
same,Activity,[10],2.69%
same,Activity,[11],76.25%
same,Activity,[12],Active
